Target: T1, α4β7 integrin interaction with MadCAM-1 (RPMI8866 cells) (Homo sapiens, UniProt P13612+P26010)
T1 construct: α4β7 integrin expressing cells; endogenous in cells; host or cells: RPMI8866 cells
T1 sequence (P13612 34-1032): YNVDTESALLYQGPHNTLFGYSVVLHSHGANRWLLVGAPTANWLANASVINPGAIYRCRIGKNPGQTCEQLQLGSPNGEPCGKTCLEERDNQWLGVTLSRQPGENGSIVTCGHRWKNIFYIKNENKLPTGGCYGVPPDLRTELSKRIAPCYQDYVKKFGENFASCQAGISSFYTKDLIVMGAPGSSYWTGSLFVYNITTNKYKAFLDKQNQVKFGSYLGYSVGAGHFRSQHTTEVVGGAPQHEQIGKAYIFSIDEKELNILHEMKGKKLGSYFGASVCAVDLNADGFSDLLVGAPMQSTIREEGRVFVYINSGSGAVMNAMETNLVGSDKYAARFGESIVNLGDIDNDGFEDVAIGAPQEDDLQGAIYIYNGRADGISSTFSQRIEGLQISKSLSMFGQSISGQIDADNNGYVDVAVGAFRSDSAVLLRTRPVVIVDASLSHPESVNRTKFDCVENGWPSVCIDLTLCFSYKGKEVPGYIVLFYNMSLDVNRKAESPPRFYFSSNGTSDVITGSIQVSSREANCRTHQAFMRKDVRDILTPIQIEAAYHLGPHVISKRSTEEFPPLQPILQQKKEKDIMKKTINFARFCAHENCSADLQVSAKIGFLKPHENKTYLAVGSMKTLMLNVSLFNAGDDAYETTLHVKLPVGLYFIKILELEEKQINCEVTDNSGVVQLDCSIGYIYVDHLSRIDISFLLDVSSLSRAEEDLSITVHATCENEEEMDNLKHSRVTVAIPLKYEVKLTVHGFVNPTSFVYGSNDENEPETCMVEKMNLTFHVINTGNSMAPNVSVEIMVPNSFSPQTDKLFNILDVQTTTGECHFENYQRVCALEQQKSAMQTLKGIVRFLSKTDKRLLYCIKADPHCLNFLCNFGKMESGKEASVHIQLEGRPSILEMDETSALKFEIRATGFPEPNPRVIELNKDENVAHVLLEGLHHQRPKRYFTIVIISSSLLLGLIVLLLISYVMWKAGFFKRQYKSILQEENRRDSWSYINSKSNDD
T1 sequence (P26010 20-798): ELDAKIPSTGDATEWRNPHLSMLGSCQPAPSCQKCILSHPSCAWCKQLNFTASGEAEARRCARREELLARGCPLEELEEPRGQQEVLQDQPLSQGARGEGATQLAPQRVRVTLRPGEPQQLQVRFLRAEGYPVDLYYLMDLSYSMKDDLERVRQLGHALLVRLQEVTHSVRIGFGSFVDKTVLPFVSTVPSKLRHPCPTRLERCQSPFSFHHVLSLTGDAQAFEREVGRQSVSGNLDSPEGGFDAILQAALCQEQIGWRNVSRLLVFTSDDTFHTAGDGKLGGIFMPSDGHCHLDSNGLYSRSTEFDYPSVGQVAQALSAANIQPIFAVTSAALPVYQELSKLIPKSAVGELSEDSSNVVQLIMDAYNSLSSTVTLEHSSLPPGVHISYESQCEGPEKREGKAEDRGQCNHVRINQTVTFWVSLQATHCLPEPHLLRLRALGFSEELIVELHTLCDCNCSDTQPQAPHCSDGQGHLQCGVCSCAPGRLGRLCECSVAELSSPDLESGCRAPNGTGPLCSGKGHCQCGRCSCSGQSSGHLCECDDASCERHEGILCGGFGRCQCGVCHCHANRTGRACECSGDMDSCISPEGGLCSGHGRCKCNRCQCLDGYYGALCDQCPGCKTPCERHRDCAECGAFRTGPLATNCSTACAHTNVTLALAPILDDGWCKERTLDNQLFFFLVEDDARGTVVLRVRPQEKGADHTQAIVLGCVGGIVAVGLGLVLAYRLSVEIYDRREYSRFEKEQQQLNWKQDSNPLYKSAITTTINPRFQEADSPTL
Experiment: α4β7 Integrin Cell Capture Assay
Assay type: cell-based
Conditions: capture of α4β7 integrin expressing RPMI8866 cells on recombinant MadCAM-1 extracellular domain-coated plate; 0.5 mM MnCl2
How it was run: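 RPMI8866 cells (0.5×10^6 cells/mL in DMEM + 0.5% FBS + 0.5 mM MnCl2) preincubated with compound 1 h at 37 °C, then allowed to adhere 30 min at 37 °C to plates coated with MAdCAM-1 extracellular domain (1.0 μg/mL). Bound cells fixed with 2% glutaraldehyde, Hoechst-stained, imaged and counted; EC50 from cell count versus concentration.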

Molecule | EC50 [nM]
Cc1cc(N2CCOC[C@@H]2C(F)(F)F)cc(F)c1C(=O)N[C@@H](Cc1ccc(-c2nc(C)c(C)n(C)c2=O)c2c1OCCO2)C(=O)O [Example 179] | 0.267
CCc1nc(-c2ccc(C[C@H](NC(=O)c3c(C)cccc3F)C(=O)O)c3c2OCCO3)c(=O)n(C)c1CC [Example 180] | 5.04
Cc1cccc(F)c1C(=O)N[C@@H](Cc1ccc(-c2nc(C)c(C)n(C)c2=O)c2c1OCCO2)C(=O)O [Example 181] | 4.34
Cn1c(=O)n(-c2ccc(C[C@H](NC(=O)c3c(F)cc(N4CCOC[C@@H]4C(F)(F)F)cc3F)C(=O)O)c3c2COC3)c(=O)c2ccncc21 [Example 182] | 0.277
Cc1nc(C)n(C)c(=O)c1-c1ccc(C[C@H](NC(=O)c2c(F)cc(N3CCOC[C@@H]3C(F)(F)F)cc2F)C(=O)O)c2c1COC2 [Example 185] | 0.282
Cc1cc(N2CCOC[C@@H]2C(F)(F)F)cc(F)c1C(=O)N[C@@H](Cc1ccc(-c2cc3cnccc3n(C)c2=O)c2c1COC2)C(=O)O [Example 189] | 0.242
Cn1c(=O)c(-c2ccc(C[C@H](NC(=O)c3c(F)cc(N4CCOC[C@@H]4C(F)(F)F)cc3F)C(=O)O)c3c2COC3)cc2cnccc21 [Example 190] | 0.338
Cc1nc(-c2ccc(C[C@H](NC(=O)c3c(F)cc(N4CCOC[C@@H]4C(F)(F)F)cc3F)C(=O)O)c3c2C[C@H](O)C3)c(=O)n(C)c1C [Example 191] | 0.371
Cc1nc(-c2ccc(C[C@H](NC(=O)c3c(F)cc(N4CCOC[C@@H]4C(F)(F)F)cc3F)C(=O)O)c3c2C[C@@H](O)C3)c(=O)n(C)c1C [Example 192] | 0.228
Cc1nc(-c2ccc(C[C@H](NC(=O)c3c(F)cc(N4CCOC[C@@H]4C(F)(F)F)cc3F)C(=O)O)c3c2CC(O)C3)c(=O)n(C)c1C (some centres unmarked) [Example 197] | 0.308
CC[C@@H](Nc1cc(F)c(C(=O)N[C@@H](Cc2ccc(-c3c(C(F)(F)F)cc(C)n(C)c3=O)c3c2CCC3)C(=O)O)c(F)c1)C(F)(F)F [Example 201] | 0.63
CC[C@@H](Nc1cc(F)c(C(=O)N[C@@H](Cc2ccc(-c3c(C(F)(F)F)cc(C)n(C)c3=O)c3c2CN(C)CC3)C(=O)O)c(F)c1)C(F)(F)F [Example 204] | 1.34
Cc1nc(-c2ccc(C[C@H](NC(=O)c3c(F)cc(N4CCOC[C@@H]4C(F)(F)F)cc3F)C(=O)O)c3c2CN(C)C3)c(=O)n(C)c1C [Example 205] | 1.27
(S)-2-(2,6-difluoro-4-(((R)-1,1,1-trifluorobutan-2-yl)amino)benzamido)-3-(7-(1,4-dimethyl-2-oxo-5-(trifluoromethyl)-1,2-dihydropyridin-3-yl)-1,3-dihydroisobenzofuran-4-yl)propanoic acid [Example 25] | 2.85

Now from value to molecule:

EC50 [nM] | Molecule
0.106 | Cc1cc(N2CCOC[C@@H]2C(F)(F)F)cc(F)c1C(=O)N[C@@H](Cc1ccc(-c2c(C)nc(C)n(C)c2=O)c2c1COC2)C(=O)O [Example 183]
0.41 | Cc1cc(N2CCOC[C@@H]2C(F)(F)F)cc(F)c1C(=O)N[C@@H](Cc1ccc(-c2c(C)c(C(F)(F)F)cn(C)c2=O)c2c1COC2)C(=O)O [Example 187]
0.227 | Cc1cc(N2CCOC[C@@H]2C(F)(F)F)cc(F)c1C(=O)N[C@@H](Cc1ccc(-c2c(C(F)(F)F)cc(C)n(C)c2=O)c2c1COC2)C(=O)O [Example 188]
0.264 | Cc1nc(-c2ccc(C[C@H](NC(=O)c3c(F)cc(N4CCOC[C@@H]4C(F)(F)F)cc3F)C(=O)O)c3c2CCC3)c(=O)n(C)c1C [Example 193]
0.099 | Cc1cc(N2CCOC[C@@H]2C(F)(F)F)cc(F)c1C(=O)N[C@@H](Cc1ccc(-c2c(C)nc(C)n(C)c2=O)c2c1CCC2)C(=O)O [Example 194]
0.198 | Cc1cc(C)n(C)c(=O)c1-c1ccc(C[C@H](NC(=O)c2c(F)cc(N3CCOC[C@@H]3C(F)(F)F)cc2F)C(=O)O)c2c1CCC2 [Example 195]
0.264 | Cc1cc(N2CCOC[C@@H]2C(F)(F)F)cc(F)c1C(=O)N[C@@H](Cc1ccc(-c2c(C)c(C(F)(F)F)cn(C)c2=O)c2c1CCC2)C(=O)O [Example 196]
0.081 | COc1cc(C)n(C)c(=O)c1-c1ccc(C[C@H](NC(=O)c2c(C)cc(N3CCOC[C@@H]3C(F)(F)F)cc2F)C(=O)O)c2c1CCC2 [Example 198]
0.19 | Cc1cc(N2CCOC[C@@H]2C(F)(F)F)cc(F)c1C(=O)N[C@@H](Cc1ccc(-c2nc(C)c(C)n(C)c2=O)c2c1CCC2)C(=O)O [Example 199]
0.083 | Cc1cc(N2CCOC[C@@H]2C(F)(F)F)cc(F)c1C(=O)N[C@@H](Cc1ccc(-c2c(C(F)(F)F)cc(C)n(C)c2=O)c2c1CCC2)C(=O)O [Example 200]
0.144 | Cc1cc(C(F)(F)F)c(-c2ccc(C[C@H](NC(=O)c3c(F)cc(N4CCOC[C@@H]4C(F)(F)F)cc3F)C(=O)O)c3c2CCC3)c(=O)n1C [Example 202]
0.36 | Cc1cc(C(F)(F)F)c(-c2ccc(C[C@H](NC(=O)c3c(F)cc(N4CCOC[C@@H]4C(F)(F)F)cc3F)C(=O)O)c3c2CCN(C)C3)c(=O)n1C [Example 203]

Source: patent US20220226337A1 (Gilead Sciences, Inc., priority 2018, published 2022)
